According to patent US9364480B2, “Pharmaceutical composition for preventing or treating cancer, containing enoblock as active ingredient” (GWANGJU INSTITUTE OF SCIENCE AND TECHNOLOGY, priority 2012, dated 2016):
Entries after “also recorded” stand apart in the source; their conditions may differ.

Assays:
purified human enolase = purified human enolase (Homo sapiens, UniProt P06733); test: Affinity matrix binding of purified enolase (Western blot)
Method: (§1) FIG. 4. […] (a) Affinity chromatography study for ENOblock in HCT116 cancer cells. […] (b) Sequence identification for the enolase monomer subunit. […] Mascot scores above 100 were deemed to be significant. […] Twenty micrograms of cell lysate from YD-10B oral cancer cells or Huh7 hepatocytes were used as positive controls. […] As a positive control, ENOblock affinity matrix was incubated with 200 μg of HCT 116 cell lysate; 50 μg cell lysate from HCT116 cancer cells was used as a positive control for the enolase antibody.
(§2) Affinity chromatography was used to identify the cellular target for AP-III-a4. Target identification strategies for the triazine library used in this study are relatively straightforward, because the molecules contain a built-in linker moiety. This allows conjugation to an affinity matrix with reduced risk of compromising biological activity.

HEK kidney cells = test: Glucose uptake with fluorescent glucose probe 2-NBDG, kidney cells; type: cell-based; conditions: 10 μM, 24 h
[1] = target: T1, Enolase purified from rabbit muscle (Oryctolagus cuniculus, UniProt P25704); test: Enolase activity assay; type: biochemical
T1 construct: Enolase purified from rabbit muscle was purchased from Sigma-Aldrich; purchased Sigma-Aldrich; host or cells: rabbit muscle
T1 sequence (P25704 whole entry): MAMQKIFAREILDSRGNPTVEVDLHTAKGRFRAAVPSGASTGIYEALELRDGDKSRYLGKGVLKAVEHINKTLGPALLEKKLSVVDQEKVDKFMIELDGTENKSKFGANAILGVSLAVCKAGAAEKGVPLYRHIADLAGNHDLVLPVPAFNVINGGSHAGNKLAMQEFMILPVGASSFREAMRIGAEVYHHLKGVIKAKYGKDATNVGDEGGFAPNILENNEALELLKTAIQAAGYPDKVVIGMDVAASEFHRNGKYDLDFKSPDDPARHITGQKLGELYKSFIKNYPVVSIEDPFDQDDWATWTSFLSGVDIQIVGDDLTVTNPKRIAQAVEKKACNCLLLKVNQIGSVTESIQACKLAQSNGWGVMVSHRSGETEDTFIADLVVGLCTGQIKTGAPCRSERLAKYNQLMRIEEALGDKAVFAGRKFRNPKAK
Method: as §1
Enolase purified from rabbit muscle was purchased from Sigma-Aldrich. A single unit of enolase is defined as the amount of enzyme that produces 1 μmol of phosphoenol pyruvate from phospho-D-glycerate/min in standard assay.^52 Enolase activity assay was measured at 37° C. by incubating pure enolase (3-9 U) in a buffer containing 50 mM imidazole-HCl (pH 6.8)(JUNSEI), 2.0 mM MgSO4 (JUNSEI) and 400 mM KCl (JUNSEI) in the absence or presence of ENOblock or NaF (Sigma). The reaction was initiated by adding 1 μmol of 2-phospho-D-glycerate, and the OD was measured after 10 min of reaction time with a spectrophometer at 240 nm.

[2] = tested on: 5′ AMP-activated protein kinase (AMPK) expression in hepatocytes; test: AMPK expression in hepatocytes; type: cell-based; conditions: 10 μM, 24 h
From the text: (§3) FIG. 10. […] Error=SD; *=P<0.05 compared to the no drug (DMSO-treated) group. […] Error=SD; *=P<0.05 for reduced PEPCK expression compared to the no drug (DMSO-treated) group.

[3] = tested on: PEPCK expression in HEK cells; test: PEPCK expression in kidney cells; type: cell-based; conditions: 10 μM, 24 h
From the text: as §3

[4] = tested on: AKT expression in HCT116 cancer cells; test: AKT Western blot; type: cell-based; conditions: 24 h treatment
Method: (§4) FIG. 7. […] (b) Microscopic images of crystal violet stained HCT116 cells invaded onto the transwell inserts (scale bar=100 μm). […] (d) Microscopic images of crystal violet stained HCT116 cells migrated onto the transwell inserts (scale bar=100 μm). […] Cells were treated with 10 nM taxol and 10 nM vincristine, with or without 10 μM ENOblock. Error=SD; *=P<0.05 between the groups indicated on the graph. […] For the AKT Western blot, cells were treated with ENOblock for 24 h; for the Bcl-Xl Western blot, cells were treated with ENOblock for 48 h.

monocytes = test: Monocyte differentiation into macrophages (attached cell count, PMA); type: cell-based; conditions: PMA treated; 10 μM
Method: (§5) FIG. 14. […] Treatment with 3 mM H2O2 for 48 h was used as a positive control.

Huh7 hepatocytes = test: Glucose uptake with fluorescent glucose probe 2-NBDG, hepatocytes; type: cell-based; conditions: 10 μM, 24 h
HCT116 cancer cells = test: Cancer cell invasion (transwell inserts, crystal violet); type: cell-based; conditions: HCT116, normoxia
Method: as §4

macrophages [5] = test: Foam cell formation from macrophages treated with oleic acid; type: cell-based; conditions: 10 μM
macrophages [6] = test: Macrophage cytotoxicity (MTT assay); type: cell-based
Method: as §5

[7] = tested on: HCT116-xenotransplanted zebrafish; test: Zebrafish tumor cell xenograft model; type: in vivo, zebrafish (Danio rerio)
From the text: FIG. 9. Toxicological study of ENOblock and in vivo analysis of anticancer activity. (A) Toxicological analysis of ENOblock treatment using the zebrafish larvae system. […] (B) Microscopic assessment of […] post fertilization (dfp) zebrafish larvae exposed to increasing doses of ENOblock. […] Error=SD; *=P<0.05 compared to the DMSO treated group. […] DMSO treatment served as a control. Three representative embryos are shown from each experimental group, and distributed cancer cell foci are designated with blue arrows. […] Error=SD; *=P<0.05 compared to the DMSO-treated group.
Zebrafish embryos were obtained using standard mating conditions^53 and staged for cell xenoplantation at 48 h post fertilization. After staining of cancer cells (described below), embryos were de-chorionized using micro-forceps and anesthetized with 0.0016% tricaine and positioned on their right side on a wet 1.0% agarose pad. Tumor cells were detached from culture dishes using 0.05% trypsin-EDTA and washed twice with PBS at room temperature. Cells were stained with 2 μg/ml DiI diluted in PBS and washed four times: once with FBS, twice with PBS and then once with 10% FBS diluted in PBS. Cells were kept on ice before injection. Cancer cells were counted by microscopy, suspended in 10% FBS and 100 cells were injected into the center of the yolk sac using an injector equipped with borosilicate glass capillaries (PV820 pneumatic picopump, World Precision Instruments). Injected embryos were transferred to a 96-well plate (one embryo/well) containing drug of interest diluted in […] E3 media (without methylene blue) and maintained at the pre-selected incubation temperature.

[8] = target: T2, enolase in HCT116 cancer cell lysate (Homo sapiens, UniProt P06733); test: Affinity chromatography / Western blot of affinity matrix eluate, cell lysate; type: binding
T2 construct: endogenous in cells; host or cells: HCT116 colon carcinoma cells (lysate)
T2 sequence (P06733 2-434): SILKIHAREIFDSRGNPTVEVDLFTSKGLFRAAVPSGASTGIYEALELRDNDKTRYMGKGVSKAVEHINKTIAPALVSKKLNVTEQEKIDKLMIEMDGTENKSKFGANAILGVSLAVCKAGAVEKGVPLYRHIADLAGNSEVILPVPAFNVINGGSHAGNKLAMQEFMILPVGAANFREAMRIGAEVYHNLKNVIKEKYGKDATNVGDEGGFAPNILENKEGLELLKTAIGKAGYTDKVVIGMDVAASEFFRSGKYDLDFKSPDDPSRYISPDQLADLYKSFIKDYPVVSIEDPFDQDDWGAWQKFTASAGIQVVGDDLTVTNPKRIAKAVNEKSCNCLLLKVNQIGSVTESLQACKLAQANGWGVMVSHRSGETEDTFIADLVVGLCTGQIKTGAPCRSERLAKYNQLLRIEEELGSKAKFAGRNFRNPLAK
Method: as §1, §2

Chain of purified human enolase (P06733 whole entry): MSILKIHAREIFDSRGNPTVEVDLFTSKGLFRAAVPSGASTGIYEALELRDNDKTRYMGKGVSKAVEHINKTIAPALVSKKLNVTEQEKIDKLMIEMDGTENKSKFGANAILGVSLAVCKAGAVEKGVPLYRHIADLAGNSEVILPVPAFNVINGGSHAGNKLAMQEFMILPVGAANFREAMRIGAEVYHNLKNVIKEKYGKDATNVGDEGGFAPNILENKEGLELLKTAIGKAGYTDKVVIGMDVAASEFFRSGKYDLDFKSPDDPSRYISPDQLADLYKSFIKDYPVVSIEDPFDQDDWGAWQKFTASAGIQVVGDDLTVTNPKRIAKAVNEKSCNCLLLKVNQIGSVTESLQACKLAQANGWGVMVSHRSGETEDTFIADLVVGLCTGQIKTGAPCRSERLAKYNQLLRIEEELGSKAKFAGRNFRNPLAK

NCCOCCOCCNC(=O)Cc1ccc(Nc2nc(NCc3ccc(F)cc3)nc(NCC3CCCCC3)n2)cc1 [ENOblock]
binding of purified enolase to compound affinity matrix (purified human enolase): purified human enolase binds to the ENOblock affinity matrix; also recorded: could bind to purified human enolase
competition by free compound for purified enolase binding to ENOblock affinity matrix (purified human enolase): inhibited purified enolase binding to the ENOblock affinity matrix
glucose uptake (2-NBDG) (HEK kidney cells): induced glucose uptake
inhibition of purified enolase activity ([1]; OD 240 nm, 37° C., 10 min): dose-dependently inhibited the activity of purified enolase; also recorded: enolase activity can be inhibited by ENOblock dose-dependently
enolase inhibitory concentration compared with sodium fluoride (NaF) ([1]; purified enolase): markedly lower concentration than the wellknown enolase inhibitor
treatment concentration reducing enolase activity to the level approximated with 1 mM NaF ([1]; purified enolase): 2.5 µM
AMPK expression [2]: did not affect expression of the enzymes
PEPCK expression [3]: inhibited expression of PEPCK
AKT expression [4]: decreased the expression of AKT and Bcl-Xl
monocyte differentiation into macrophages (number of attached cells) (monocytes): inhibited differentiation into macrophages
glucose uptake (2-NBDG) (Huh7 hepatocytes): induced glucose uptake
cancer cell invasion (HCT116 cancer cells; 0.625-2.5 μM): inhibited invasion dose-dependently
treatment concentration at which cancer cell invasion is significantly inhibited (HCT116 cancer cells; P value=0.0481): 0.625 µM
foam cell formation (Oil Red O staining, microscopy) (macrophages [5]): inhibited foam cell formation
foam cell formation (count of cells showing lipid accumulation) (macrophages [5]): inhibited foam cell formation
cytotoxicity to macrophages (MTT absorbance 570 nm) (macrophages [6]): not due to cytotoxicity
number of embryos showing cancer cell migration and metastasis (dissemination) from the yolk sac injection site ([7]; 10 μM for 96 h, DMSO control): reduced the number of embryos showing migration and metastasis; also recorded: reduced cancer cell dissemination
quantification of xenotransplanted cancer cell microfoci ([7]; 10 μM for 96 h, vs DMSO-treated group): significantly reduced cancer cell migration and metastasis
viability of xenotransplanted cancer cells ([7]; normoxia): without noticeably affecting cancer cell viability
competition by free compound for enolase binding to ENOblock affinity matrix [8]: completely inhibited enolase binding to the ENOblock affinity matrix
binding of lysate proteins/enolase to compound affinity matrix ([8]; silver stain, mass spectrometry): enolase in HCT116 cancer cell lysate binds to the ENOblock affinity matrix
